Test results taken from ChEMBL document CHEMBL4024707, “Using gene expression database to uncover biology functions of 1,4-disubstituted 1,2,3-triazole analogues synthesized via a copper (I)-catalyzed reaction” (Eur J Med Chem, 2017).

Legend:
Assay type in all cases: functional
Hep 3B2 [1] = assay: Cell cycle arrest in human Hep3B cells assessed as accumulation at G0/G1 phase at 40 uM after 72 hrs by propidium iodide staining based flow cytometry (reference value: 41.6 to 46.2%)
Hep 3B2 [2] = assay: Down regulation of ORC1 expression in human Hep3B cells at 1 uM after 6 to 24 hrs by L1000 expression profiling method relative to control
Hep 3B2 [3] = assay: Down regulation of ZNF586 expression in human Hep3B cells at 1 uM after 6 to 24 hrs by L1000 expression profiling method relative to control

| Structure (SMILES) | Activity (Hep 3B2 [1]) [%] | log2FC (Hep 3B2 [2]) | log2FC (Hep 3B2 [3]) |
| --- | --- | --- | --- |
| COc1ccc(CNC(=O)Nc2ncc([N+](=O)[O-])s2)cc1 | 38.5 | – | – |
| O=C1COc2ccccc2N1Cc1cn(CCC2OCCO2)nn1 | – | -3.3272 | -4.0824 |
